Test results published in US20250388605A1, “HETEROBIFUNCTIONAL COMPOUNDS AND METHODS OF TREATING DISEASE” (Halda Therapeutics OpCo, Inc., priority 2022, published 2025).

Columns and labels:
[1] = system: T47D cells; experiment: Cellular Growth Inhibition Assay for T47D Cells (CellTiter-Glo); type: cell-based, human; details: Homo sapiens, 72 hours
How it was run: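 GI50 values derive from four-parameter regression of CellTiter-Glo 2.0 luminescence, using zero luminescence as baseline. Human breast cancer T47D cells (3000/well; DMEM, 10% FBS, 0.2 units/mL insulin) were exposed for 72 h to compound dilutions at 0.5% DMSO, with dosing starting 24 h after seeding.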

[2] = target: T1, progesterone receptor (Homo sapiens, UniProt P06401); experiment: PR Human Progesterone NHR Binding (Agonist Radioligand) Assay, [3H]progesterone, T47D cytosolic fractions; details: 0.5 nM [3H]progesterone, 1 hour at 4° C.
T1 sequence (P06401 679-933 limits assumed): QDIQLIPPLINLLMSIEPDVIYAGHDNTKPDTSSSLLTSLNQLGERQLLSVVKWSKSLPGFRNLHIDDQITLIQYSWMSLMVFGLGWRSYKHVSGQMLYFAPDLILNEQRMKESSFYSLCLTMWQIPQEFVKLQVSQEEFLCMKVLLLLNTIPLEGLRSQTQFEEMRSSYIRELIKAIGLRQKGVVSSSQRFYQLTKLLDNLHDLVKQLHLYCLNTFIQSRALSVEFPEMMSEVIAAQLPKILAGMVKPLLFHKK
Experimental: Exemplary compounds were tested for ability to bind to the progesterone receptor.
Compounds were tested using the PR Human Progesterone NHR Binding (Agonist Radioligand) Assay, Cerep at Eurofins Discovery using a modified version of the protocol from Sarup et al. (Cancer Res 1988; 48:5071-5078). Briefly, cytosolic fractions of T47D cells were incubated with 0.5 nM [^3H]progesterone for 1 hour at 4° C. in the absence or presence of the test compound. Nonspecific binding was determined in the presence of […] promegestone. Reactions were subjected to scintillation counting. Results are expressed as a percent inhibition of the control radioligand specific binding.

- GI50 [1]: < 500 nM
- Ki [2]: 500 to 2500 nM
SMILES: Cn1cc(-c2cc(C(C)(C)O)ccc2Oc2ccc(N3CC(CC4CCN(c5cnc(C(=O)N[C@H]6C(C)(C)[C@H](Oc7ccc(C#N)c(C(F)(F)F)c7)C6(C)C)cn5)CC4)C3)cc2)c2cc[nH]c2c1=O [Compound I-373]
